According to US7273866B2, “2-aryl thiazole derivatives as KCNQ modulators” (Bristol-Myers Squibb Company, priority 2002, dated 2007):

Experiments:
KCNQ channels = assay: Thallium flux assay for KCNQ channel openers; type: cell-based; settings: minimal active concentration: lowest concentration giving signal amplitude >= four standard deviations of negative controls; HEK-293 cells stably transfected with a KCNQ family member
Outline: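 HEK-293 lines stably expressing individual KCNQ members, loaded with BTC-AM in chloride-free buffer pH 7.3, compound added (1% DMSO final) before 7.5 mM Tl2SO4 stimulus; fluorescence read 60 s on FLIPR. Minimal active concentration at ≥4 SD above negative controls; EC50 from 10-point logistic fit.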

[1] = system: peripheral mononeuropathy nerve injury-induced tactile allodynia; assay: Chung model of neuropathic pain (Chung surgery and von Frey test); type: in vivo, Sprague Dawley rats; settings: 100 mg/kg, i.v.; von Frey thresholds over 90 min, rat
Method: Chung model of neuropathic pain (Chung surgery and von Frey test). To test agents for activity against peripheral mononeuropathy nerve injury-induced tactile allodynia, male Sprague Dawley rats (wt. 120-160 g) were surgically prepared with unilateral tight ligation of spinal nerves L5 and L6 following the method of Kim and Chung (Kim S. H., Chung J. M. (1992) Pain, September; 50(3):355-63). After 3-4 weeks recovery, paw withdrawal to light touch was assessed as described by Chaplan et al. (Chaplan S. R., et al., (1994) J. Neurosci Methods, July; 53(1):55-63). […] After acclimation, baseline von Frey thresholds were assessed for the injured hindpaw at −15 min. […] Following drug administration, von Frey thresholds were measured at 15, 30, 60 and 90 min. Data were analyzed by a 2-way repeated measures analysis of variance followed by Dunnett's test (p<0.05). […]
Reversal of neuropathic pain behavior may be expressed as a percentage (0-100%) of the maximum possible effect, over and above the vehicle effects. […]
For example, a compound which immediately reversed neuropathic pain behavior to normal levels, such that animals only responded to the highest von Frey filament (15 g), and maintained normal levels through out the post-drug testing period (90 min) would be calculated as Δ% MPE=100%.

SMILES	Min. conc. response (KCNQ channels)	AUC (Δ % MPE) [1]
CCN(Cc1ccncc1)Cc1ccccc1-c1nc(C(F)(F)F)c(C(=O)NCc2cccc(OC)c2)s1 [Example 114]	3 µM	–
CCN(Cc1ccncc1)Cc1ccccc1-c1nc(C(F)(F)F)c(C(=O)N[C@@H](C)c2cccc(N3CCOCC3)c2)s1 [Example 115]	3 µM	–
CCN(Cc1ccncc1)Cc1ccccc1-c1nc(C(F)(F)F)c(C(=O)NC(C)c2cccc(CN3CCOCC3)c2)s1 (stereo not shown) [Example 116]	3 µM	–
CCN(Cc1ccncc1)Cc1ccccc1-c1nc(C(F)(F)F)c(C(=O)NC(C)c2cccc(-c3cccnc3)c2)s1 (stereo not shown) [Example 117]	0.3 µM	–
Cc1cccnc1-c1nc(C(F)(F)F)c(C(=O)N[C@@H](C)c2cccc(N3CCOCC3)c2)s1 [Example 118]	10 µM	–
CC(NC(=O)c1sc(-c2ncccc2CN2CCOCC2)nc1C(F)(F)F)c1cccc(C(F)(F)F)c1 (stereo not shown) [Example 124]	3 µM	–
NCC1(CC(=O)O)CCCCC1 [Gabapentin, gabapentin, reference compound]	–	50 (100 mg/kg, i.v.) Δ % MPE
